Test results as given in publication PMC13013135, “[^99mTc]Tc-PSMA-HSG for PSMA-targeted Hybrid Surgical Guidance: a new addition to the PSMA-I&S/I&T family” (European Journal of Nuclear Medicine and Molecular Imaging, 2025).

Tests used:
[1] = test system: PSMA expressing LNCaP cells; test: Dual tracer internalization assay; assay type: cell-based, human; details: 60 min, 37 °C, 0.5 nM tracer, normalized to ([^125I]IBA)KuE
Description: Competitive binding experiments (IC50) were carried out in accordance with an established protocol using PSMA-expressing LNCaP cells and ([^125I]I-BA)KuE as standard radioligand. […] Please see the Supplementary Material for experimental details. […] The supernatant was removed, cells were washed with assay medium, and an acid wash (50 mM NaOAc in saline, pH 4.5) was performed to remove membrane-associated activity. Cells were then lysed using 1N NaOH, and internalized activity was quantified using a γ-counter. […] Tocris Bioscience, Bristol, UK) and normalized to the specific internalization observed for the radioiodinated reference compound in the same experiment. Data represent means ± SD (n=3) from three separate determinations.

[2] = Lipophilicity, modified shake-flask method; assay type: physicochemical
Description: The lipophilicity of [^99mTc]Tc-PSMA-HSG was determined via a modified shake-flask method as described.

human serum = test: Plasma protein binding (B50), ultrafiltration, human serum; assay type: in vitro ADME
Description: A detailed experimental procedure is provided in the Supplementary Material. […] Briefly, protein solutions (maximum concentration: […] Samples were briefly vortexed and incubated for 30 min at 37 °C. […] The filter units were then removed from the centrifugal tubes and washed twice with 300 µL PBS to recover the protein fraction. The activity in the filtrate, filter and protein fraction were then quantified using a γ-counter. […] The percentages of radioligand bound to the respective proteins are represented as means ± standard deviation (SD) of three independent experiments.

in vivo = details: male, NSG, mouse, iv, 1 nmol/mouse, total radioactivity, biodistribution
Description: As documented in the literature, engineered PC3-Pip cells express particularly high PSMA levels, which are not representative for the situation in human tumors (mean number of PSMA binding sites = 4.9 × 10^6 sites/cell for PC3-Pip cells vs. 5.9 × 10^5 sites/cell for LNCaP [60]). Thus, to correlate quantitative data with in vivo/ex vivo fluorescence signals, a biodistribution study was conducted under the same conditions as the fluorescence imaging. NSG mice bearing PC3-Pip (PSMA+) and PC3 WT (PSMA-) xenografts on opposite shoulders received [^99mTc]Tc-PSMA-HSG (1 nmol), and biodistribution was assessed at 2 h p.i. (Supplementary Table 1). The overall distribution matched previous data from LNCaP-bearing mice (Table 3), but tumor uptake was over twice as high (26.6 ± 5.0%iD/g). Low uptake in PC3 WT tumors (1.6 ± 0.3%iD/g) confirmed PSMA-specificity.
PC-3 PIP xenografts were established by subcutaneous injection of 5 × 10^6 PC3-PIP cells/mouse using 8–12-week-old male NSG mice (in-house breeding, Dpt. of Oncology, University of Lausanne) as previously described. Tumors reached a size of 4-8 mm in diameter after 5-6 days and were then immediately used for the fluorescence imaging studies.

PSMA = PSMA (Homo sapiens, UniProt Q04609); test: Radioguided surgery (RGS) with gamma probe, ex vivo fluorescence microscopy; assay type: in vivo; design: Five patients with a diagnosis of initial (n = 4) or biochemical recurrence of (n = 1) histologically proven prostate cancer; from tissue; host or cells: prostate cancer patients: primary tumour, lymph nodes, resected tissue sections
Description: Radioguided open surgery was performed the day after tracer injection by an experienced urologic surgeon (DW; more than 20 years of surgical experience) in collaboration with a nuclear medicine physician. Using a conventional gamma probe (C-Trak®, SanuC GmbH, Jahnsdorf, Germany), suspicious lymph nodes (defined as spots with signal-to-background ratios ≥ 2) were excised separately followed by pelvic lymph node dissection. […] Fresh frozen tissue sections were prepared using a standard cryosectioning protocol with 10–20 μm sections mounted for fluorescence imaging. These slides were stored on dry ice prior to fluorescence microscopy to preserve tissue integrity. Fluorescence microscopy of patient samples was performed using an Axioscan 7 slide scanner (Zeiss) equipped with a Colibri 7 LED light source and a 20×/0.8 NA Plan-Apochromat objective. Cy5 fluorescence was acquired using a filter set with excitation 640/30 nm, dichroic mirror 660 nm, and emission 690/50 nm. Image acquisition and analysis were performed using ZEN Blue 3.5 software (Zeiss). For immunohistochemical analysis, adjacent formalin-fixed, paraffin-embedded tissue sections were cut at 2 μm thickness and stained for PSMA (clone EP192 BioSB, BIOO Scientific) using a Ventana Benchmark automated platform (Bio SB, Santa Barbara, CA, USA). Conventional hematoxylin and eosin (H&E) and immunohistochemical (for PSMA) staining was performed on corresponding tissue sections to enable morphologic correlation and verification of target expression, respectively. For further information on immunhistochemical staining please refer to the Supplementary Material.

[3] = exploratory cohort, five patients

Chain of PSMA (Q04609 whole entry): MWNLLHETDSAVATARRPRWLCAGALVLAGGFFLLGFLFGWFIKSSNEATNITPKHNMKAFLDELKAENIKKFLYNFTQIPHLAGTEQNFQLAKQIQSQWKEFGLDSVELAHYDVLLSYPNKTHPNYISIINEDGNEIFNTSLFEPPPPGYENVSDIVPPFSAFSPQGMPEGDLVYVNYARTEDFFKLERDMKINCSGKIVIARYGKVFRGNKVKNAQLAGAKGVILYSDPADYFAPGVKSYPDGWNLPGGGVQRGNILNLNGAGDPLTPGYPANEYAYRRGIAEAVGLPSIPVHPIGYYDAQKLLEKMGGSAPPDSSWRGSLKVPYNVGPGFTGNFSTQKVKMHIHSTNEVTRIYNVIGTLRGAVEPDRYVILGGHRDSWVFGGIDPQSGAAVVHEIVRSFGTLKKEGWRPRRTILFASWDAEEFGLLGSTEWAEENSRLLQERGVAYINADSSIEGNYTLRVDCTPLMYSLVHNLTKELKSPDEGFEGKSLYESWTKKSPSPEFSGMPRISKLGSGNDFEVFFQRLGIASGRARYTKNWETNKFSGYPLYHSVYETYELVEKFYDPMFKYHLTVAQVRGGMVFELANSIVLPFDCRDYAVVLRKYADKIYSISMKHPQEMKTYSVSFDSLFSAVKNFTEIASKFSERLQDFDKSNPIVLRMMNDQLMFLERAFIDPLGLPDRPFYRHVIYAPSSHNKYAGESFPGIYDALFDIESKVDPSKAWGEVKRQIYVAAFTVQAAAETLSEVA

## C[N+]1=C(/C=C/C=C/C=C2/N(CCCCCC(=O)NCCCC[C@@H](NC(=O)[C@@H](CO)NC(=O)[C@@H](CO)NC(=O)[C@@H](CO)NC(=O)CS)C(=O)N[C@H](Cc3ccc(O)cc3)C(=O)N[C@H](Cc3ccc4ccccc4c3)C(=O)N[C@H](CCCCNC(=O)CCCCCCC(=O)NCCCC[C@H](NC(=O)N[C@@H](CCC(=O)O)C(=O)O)C(=O)O)C(=O)O)c3ccc(S(=O)(=O)[O-])cc3C2(C)C)C(C)(C)c2cc(S(=O)(=O)O)ccc21 [[^99mTc]Tc-PSMA-HSG, metal not drawn]
[1]
  internalization [% of reference]: 14 ± 1 % of reference
[2]
  logD: -2.94
Human serum
  B50 HS: 220 ± 35
In vivo; PC3-Pip tumor
  tissue uptake at 2 h: 26.6 ± 5 %ID/g
In vivo; PC3 WT tumor
  tissue uptake at 2 h: 1.6 ± 0.3 %ID/g
In vivo; blood
  tissue uptake at 2 h: 2.8 ± 0.4 %ID/g
In vivo; heart
  tissue uptake at 2 h: 1.5 ± 0.3 %ID/g
In vivo; intestines
  tissue uptake at 2 h: 0.9 ± 0.1 %ID/g
In vivo; kidneys
  tissue uptake at 2 h: 100 ± 8.2 %ID/g
In vivo; liver
  tissue uptake at 2 h: 2.9 ± 0.5 %ID/g
In vivo; lung
  tissue uptake at 2 h: 4.1 ± 1.2 %ID/g
In vivo; muscle
  tissue uptake at 2 h: 0.6 ± 0.1 %ID/g
In vivo; pancreas
  tissue uptake at 2 h: 0.9 ± 0.2 %ID/g
In vivo; salivary glands
  tissue uptake at 2 h: 2.2 ± 0.4 %ID/g
In vivo; spleen
  tissue uptake at 2 h: 8.2 ± 0.7 %ID/g
In vivo; stomach
  tissue uptake at 2 h: 1.5 ± 0.1 %ID/g
PSMA; Patient #1
  RGS, ex vivo activity, left external iliac LN: 190 cps
  RGS, ex vivo activity, right external iliac LN: 230 cps
PSMA; Patient #1, 53 µg
  RGS, in vivo activity measurements: intraoperative detection feasible; after resection no further tracer accumulation detected
PSMA; Patient #2, 53 µg
  RGS, in and ex vivo activity measurements: In and ex vivo activity measurements: No positive LN
PSMA; Patient #3, 53 µg
  RGS, in and ex vivo activity measurements: In and ex vivo activity measurements: No positive LN
PSMA; Patient #4
  RGS, ex vivo activity, right iliac LN (2 adjacent LNs): 20 cps
  RGS, ex vivo activity, right iliac LN (first listed): 50 cps
  RGS, ex vivo activity, right iliac LN (last listed): 15 cps
PSMA; Patient #4, 350 µg
  RGS, in vivo activity measurements: No detection of tracer-positive lesions
  specificity of uptake in resected lymph nodes, fluorescence microscopy: highly PSMA-specific
PSMA; Patient #5, 250 µg
  RGS, in and ex vivo activity measurements: In and ex vivo activity measurements: No positive LN
PSMA; [3]
  NPV of RGS: 100%
  PPV of RGS: 100%
  sensitivity of RGS (abstract: selectivity): 100%
  specificity of RGS: 100%
PSMA; in vivo
  lymph node metastases in tracer-avid lesions, intraoperative gamma detection: 6/6
PSMA; patient sub-cohort
  true negative lymph nodes identified by RGS: 53/53
  true positive lymph nodes identified by RGS: 4/4
